Tests used:
[1] = tested on: foreskin cells in which senescence was induced by doxorubicin; assay: CellTiter-Glo cell viability of doxorubicin-induced senescent foreskin cells (Examples 1-2, 10, 11, 13; Tables 4, 63, 65); format: cell-based, human; settings: Homo sapiens, 72 h, doxorubicin-induced senescent foreskin cells, CellTiter-Glo, 0 μM = 100, read-out: Survival (%); for viability at 1.1 µM: 1.1 μM test compound; for viability at […]: […] test compound; for viability at 10 µM: 10 μM test compound; for viability at 30 µM: 30 μM test compound
Procedure: After 3 days, cell viability was measured using CellTiter-Glo Luminescent Cell Viability Assay (Promega) or light microscopy.

HMGN1 [2] = assay: HMGN1 ELISA in culture medium of foreskin cells (Examples 10, 11; Tables 62, 63, 64); format: cell-based, human; settings: Homo sapiens, 30 μM test compound, doxorubicin-treated foreskin cells, DMSO = 100; read-out: HMGN1
HMGN1 [3] = assay: HMGN1 ELISA in culture medium of A549 cancer cells (Example 12, Table 66); format: cell-based, human; settings: Homo sapiens, A549, doxorubicin-induced senescent A549 cells, test compound 30 μM, ELISA, DMSO = 100; read-out: HMGN1 (amount of HMGN1 secreted in the cell culture)
A549 = assay: CellTiter-Glo cell viability of senescent A549 cancer cells (Example 12, Table 67); format: cell-based, human; settings: Homo sapiens, A549, doxorubicin-induced senescent A549 cancer cells, CellTiter-Glo, read-out: Survival (%); for viability at 1.1 µM: 1.1 μM test compound; for viability at 10 µM: 10 μM test compound; for viability at 30 µM: 30 μM test compound
p16, MMP3, IL6 = p16, MMP3, IL6 mRNA qRT-PCR in groin fat of obese mice given senescent cells killed by test compounds (Example 16, Table 72); format: in vivo, C57BL6J mice; settings: obese mice administered senescent cells whose death was induced by the test compound
Text: To obtain preadipocytes, groin fat tissue was collected from an 8-week-old female C57BL6J mouse (purchased from KRIBB Laboratory Animal Resource Center). The fat tissue was cut into small pieces and treated with collagenase to decompose the fat tissue, then centrifuged to collect the stromal vascular fraction (SVF) containing preadipocytes. It was washed with a washing medium (HBSS, purchased from GenDEPOT; 3.5% Albumin Fraction V, purchased from GenDEPOT; 100 U/ml Penicillin & Streptomycin, purchased from Invitrogen), mixed again, and extracted by filtering through a 100 μm nylon mesh. The isolated preadipocytes were cultured in the designated medium (DMEM, purchased from GenDEPOT; 20% FBS, purchased from GenDEPOT; 100 U/ml Penicillin & Streptomycin, purchased from Invitrogen). In the same manner as Example 1, cells were treated with doxorubicin at a concentration of 250 nM for 24 hours and cultured for an additional 21 days to induce cell senescence. Cells were treated with doxorubicin at a concentration of 250 nM for 24 hours and cultured for an additional 21 days to induce cell senescence. By treating the test compounds in the same manner as in Example 13, it was confirmed using an optical microscope that the death of most senescent cells was induced. The killed preadipocytes were washed using PBS (purchased from Welgene) and then mixed with PBS at a concentration of 5×10^5 cells/200 μl. It was administered subcutaneously to 8-week-old female C57BL6J mice (purchased from KRIBB Laboratory Animal Resource Center). At 7 and 10 days after administration of the killed senescent cells, 2 million senescent preadipocytes were mixed in 200 μl of PBS and administered into the abdominal cavity of mice. After administration of killed senescent cells, obesity was induced in mice with a high-fat diet (DIO) for 8 weeks in the same manner as in Example 9-1. Afterwards, the mouse was sacrificed in the same manner as in Example 7-2, total RNA was extracted from the groin fat tissue, and qRT-PCR was performed and analyzed using the synthesized cDNA. […] The mRNA amount of p16, MMP3, and IL6 without administration of senescent cells whose death was induced by the test compounds was calculated as 100%, and the amount of p16, MMP3, and IL6 after administration of the senescent cells whose death was induced by the test compounds was compared with them. Furthermore, an open field test was performed to analyze aging-related frailty in mice using the same method as Example 7-7. […] The amount of activity evaluation without administration of senescent cells whose death was induced by the test compounds was calculated as 100% and compared it with the amount of activity evaluation after administration of senescent cells whose death was induced by the test compounds. […]

[4] = open field test in obese mice given senescent cells killed by test compounds (Example 16, Table 72); format: in vivo, C57BL6J mice; settings: obese mice administered senescent cells whose death was induced by the test compound
Text: To obtain preadipocytes, groin fat tissue was collected from an 8-week-old female C57BL6J mouse (purchased from KRIBB Laboratory Animal Resource Center). The fat tissue was cut into small pieces and treated with collagenase to decompose the fat tissue, then centrifuged to collect the stromal vascular fraction (SVF) containing preadipocytes. It was washed with a washing medium (HBSS, purchased from GenDEPOT; 3.5% Albumin Fraction V, purchased from GenDEPOT; 100 U/ml Penicillin & Streptomycin, purchased from Invitrogen), mixed again, and extracted by filtering through a 100 μm nylon mesh. The isolated preadipocytes were cultured in the designated medium (DMEM, purchased from GenDEPOT; 20% FBS, purchased from GenDEPOT; 100 U/ml Penicillin & Streptomycin, purchased from Invitrogen). In the same manner as Example 1, cells were treated with doxorubicin at a concentration of 250 nM for 24 hours and cultured for an additional 21 days to induce cell senescence. Cells were treated with doxorubicin at a concentration of 250 nM for 24 hours and cultured for an additional 21 days to induce cell senescence. By treating the test compounds in the same manner as in Example 13, it was confirmed using an optical microscope that the death of most senescent cells was induced. The killed preadipocytes were washed using PBS (purchased from Welgene) and then mixed with PBS at a concentration of 5×10^5 cells/200 μl. It was administered subcutaneously to 8-week-old female C57BL6J mice (purchased from KRIBB Laboratory Animal Resource Center). At 7 and 10 days after administration of the killed senescent cells, 2 million senescent preadipocytes were mixed in 200 μl of PBS and administered into the abdominal cavity of mice. After administration of killed senescent cells, obesity was induced in mice with a high-fat diet (DIO) for 8 weeks in the same manner as in Example 9-1. Afterwards, the mouse was sacrificed in the same manner as in Example 7-2, total RNA was extracted from the groin fat tissue, and qRT-PCR was performed and analyzed using the synthesized cDNA. […] The mRNA amount of p16, MMP3, and IL6 without administration of senescent cells whose death was induced by the test compounds was calculated as 100%, and the amount of p16, MMP3, and IL6 after administration of the senescent cells whose death was induced by the test compounds was compared with them. Furthermore, an open field test was performed to analyze aging-related frailty in mice using the same method as Example 7-7. […] The amount of activity evaluation without administration of senescent cells whose death was induced by the test compounds was calculated as 100% and compared it with the amount of activity evaluation after administration of senescent cells whose death was induced by the test compounds.

COc1cc(OC)cc(O[C@H]2OC3O[C@@]4(C)CCC5[C@H](C)CCC([C@H]2C)[C@@]35OO4)c1 (stereo partly drawn) [LX-502]
viability at 1.1 µM [1]: 59.1%
viability at […] [1]: 10.4%
activity at 30 µM (HMGN1 [2]): 274%
activity at 30 µM (HMGN1 [3]): 321%
viability at 1.1 µM (A549): 78.4%
IL6 mRNA (%) (p16, MMP3, IL6): 83.3 (±5.1) %
MMP3 mRNA (%) (p16, MMP3, IL6): 77.4 (±8)^ %
p16 mRNA (%) (p16, MMP3, IL6): 81.7 (±7.8) %
Open Field Test Time in Center (%) [4]: 126 (±20.4) %

C[C@H]1Cc2c([nH]c3ccccc23)[C@H](c2ccc(C(=O)N[C@]34CC5C[C@H](C[C@H](C5)C3)C4)cc2)N1C(=O)CCl [LX-411]
viability at 1.1 µM [1]: 0.2%
activity at 30 µM (HMGN1 [2]): 300%
activity at 30 µM (HMGN1 [3]): 335%
viability at 1.1 µM (A549): 1.8%
IL6 mRNA (%) (p16, MMP3, IL6): 71.9 (±7.2) %
MMP3 mRNA (%) (p16, MMP3, IL6): 92.7 (±8.1) %
p16 mRNA (%) (p16, MMP3, IL6): 79.7 (±6.6) %
Open Field Test Time in Center (%) [4]: 163 (±9) %

CC1(C)CC[C@]2(NC(=O)C(C)(F)F)CC[C@]3(C)[C@H](C(=O)C=C4[C@@]5(C)C=C(C#N)C(=O)C(C)(C)[C@@H]5CC[C@]43C)[C@@H]2C1 [LX-2101, Omaveloxolone, reference compound]
viability at 1.1 µM [1]: 1.8%
activity at 30 µM (HMGN1 [2]): 274%
activity at 30 µM (HMGN1 [3]): 297%
viability at 1.1 µM (A549): 71.6%
IL6 mRNA (%) (p16, MMP3, IL6): 75.9 (±6.7) %
MMP3 mRNA (%) (p16, MMP3, IL6): 68.3 (±16.4) %
p16 mRNA (%) (p16, MMP3, IL6): 73.8 (±9.7) %
Open Field Test Time in Center (%) [4]: 144.9 (±26.6) %

COCC1(CO)C(=O)C2CCN1CC2 (stereo not drawn) [LX-701, Eprenetapopt, reference compound]
viability at 1.1 µM [1]: 99.3%
viability at 10 µM [1]: 45.9%
viability at 30 µM [1]: 27.4%
viability at […] [1]: 100%
activity at 30 µM (HMGN1 [2]): 277%
activity at 30 µM (HMGN1 [3]): 297%
viability at 1.1 µM (A549): 99.2%
viability at 10 µM (A549): 91%
viability at 30 µM (A549): 11.3%
IL6 mRNA (%) (p16, MMP3, IL6): 68.2 (±14.3) %
MMP3 mRNA (%) (p16, MMP3, IL6): 72.5 (±9.2) %
p16 mRNA (%) (p16, MMP3, IL6): 81.9 (±6.8) %
Open Field Test Time in Center (%) [4]: 181.8 (±27.1) %

CCC(C)SSc1ncc[nH]1 (stereo not drawn) [LX-307]
viability at 1.1 µM [1]: 101%
viability at 10 µM [1]: 14.5%
viability at 30 µM [1]: 3.5%
viability at […] [1]: 85.6%
activity at 30 µM (HMGN1 [2]): 258%
activity at 30 µM (HMGN1 [3]): 305%
viability at 1.1 µM (A549): 101%
viability at 10 µM (A549): 72.5%
viability at 30 µM (A549): 7.6%
IL6 mRNA (%) (p16, MMP3, IL6): 87.2 (±10.5) %
MMP3 mRNA (%) (p16, MMP3, IL6): 76.7 (±7.7) %
p16 mRNA (%) (p16, MMP3, IL6): 73.1 (±8.5) %
Open Field Test Time in Center (%) [4]: 159 (±9.9) %

Fc1ccc(-n2cc(CCCCN3CCC4(CC3)OCc3ccccc34)c3ccccc32)cc1 [LX-1102, Siramesine, reference compound]
viability at 1.1 µM [1]: 94%
viability at 10 µM [1]: 3.1%
viability at […] [1]: 13.9%
activity at 30 µM (HMGN1 [2]): 271%
activity at 30 µM (HMGN1 [3]): 324%
viability at 1.1 µM (A549): 99.5%
viability at 10 µM (A549): 17.7%
IL6 mRNA (%) (p16, MMP3, IL6): 76.2 (±7.1) %
MMP3 mRNA (%) (p16, MMP3, IL6): 95.4 (±9.6) %
p16 mRNA (%) (p16, MMP3, IL6): 82.9 (±4.8) %
Open Field Test Time in Center (%) [4]: 146.2 (±17.1) %

CCc1ccc(C(=O)C(C)CN2CCCCC2)cc1 (stereo not drawn) [LX-1401, Eperisone, reference compound]
viability at 1.1 µM [1]: 96.4%
viability at 10 µM [1]: 10.2%
viability at 30 µM [1]: 9%
viability at […] [1]: 88.1%
activity at 30 µM (HMGN1 [2]): 296%
activity at 30 µM (HMGN1 [3]): 287%
viability at 1.1 µM (A549): 99%
viability at 10 µM (A549): 49.9%
viability at 30 µM (A549): 22.8%
IL6 mRNA (%) (p16, MMP3, IL6): 72.8 (±10.4) %
MMP3 mRNA (%) (p16, MMP3, IL6): 75.1 (±9.4) %
p16 mRNA (%) (p16, MMP3, IL6): 83.4 (±6.9) %
Open Field Test Time in Center (%) [4]: 166.7 (±14.8) %

C[C@@H]1CC[C@@]23C[C@H](O)C(=O)[C@@]2(O)[C@]1(C)[C@H](OC(=O)CCl)C[C@@H](C1=CCn2c(=O)n(-c4ccccc4)c(=O)n2C1)[C@@H]3C [LX-1801, (2S,3aS,4S,5R,7R,8S,8aS,11R)-7-(1,3-Dioxo-2-phenyl-2,3,5,8-tetrahydro-1H-[1,2,4]triazolo[1,2-a]pyridazin-6-yl)-2,3a-dihydroxy-4,8,11-trimethyl-3-oxooctahydro-1H-4,8a-propanoazulen-5-yl 2-Chloroacetate]
viability at 1.1 µM [1]: 8.7%
activity at 30 µM (HMGN1 [2]): 291%
activity at 30 µM (HMGN1 [3]): 295%
viability at 1.1 µM (A549): 60.6%
viability at 10 µM (A549): 25.1%
IL6 mRNA (%) (p16, MMP3, IL6): 56.4 (±12.4) %
MMP3 mRNA (%) (p16, MMP3, IL6): 67.8 (±13.1) %
p16 mRNA (%) (p16, MMP3, IL6): 62.5 (±9.4) %
Open Field Test Time in Center (%) [4]: 173.4 (±18.6) %

From patent publication US20250108036A1, “COMPOSITIONS FOR REMOVING SENESCENT CELLS AND USES THEREOF” (LIFECEUTIX CO., LTD., priority 2021, published 2025)
